Biological target: T1, YsxC (Bacillus subtilis, UniProt P38424)
T1 construct: gene engB; full-length YsxC, 22 kDa, N-terminal His6 tag (pET15b-ysxC) cleaved by thrombin, expressed in E. coli BL21(DE3)
Assay: cryo-EM structure of the complex on the […].5S(YsxC) particle
Type: binding
Settings: 2 mM GMPPNP, 15 mM MgCl2, 50 mM NH4Cl, pH 7.5, 37 °C; nucleotide site; non-hydrolyzable GTP analogue

T1 sequence (P38424 whole entry): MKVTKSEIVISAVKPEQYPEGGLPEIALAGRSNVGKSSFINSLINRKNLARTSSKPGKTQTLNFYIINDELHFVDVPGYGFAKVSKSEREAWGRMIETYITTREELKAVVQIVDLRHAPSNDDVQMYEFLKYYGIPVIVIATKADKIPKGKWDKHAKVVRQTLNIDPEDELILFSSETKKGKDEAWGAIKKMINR

## Nc1nc2c(ncn2[C@@H]2O[C@H](COP(=O)(O)OP(=O)(O)NP(=O)(O)O)[C@@H](O)[C@H]2O)c(=O)[nH]1 [GMPPNP]
  cryo-EM structure of the complex on the 44.5S(YsxC) particle: the density corresponding to the GMPPNP nucleotide (colored in blue), are indicated
